Data taken from patent US11173144B2, “Adrenergic receptor modulating compounds and methods of using the same” (The Board of Trustees of the Leland Stanford Junior …, priority 2016, dated 2021).
pEC50: −log10 of the molar value.

Columns and labels:
ADRB1 = ADRB1 (Homo sapiens (Human), UniProt P08588); experiment: β-arrestin assay (PathHunter enzyme fragment complementation, CHO-K1-ADRB1 cells); assay type: cell-based; conditions: Table 4
Experimental: Pharmacological activity of compounds in the β-arrestin pathway mediated by ADRB1 are evaluated using an enzyme fragment complementation method with a β-galactosidase functional reporter. An engineered CHO-K1-ADRB1 PathHunter cell line (DiscoveRx) is used in the assay. In this cell line, enzyme acceptor (β-galactosidase fragment) is fused to β-arrestin and enzyme donor (β-galactosidase fragment) is fused to the ADRB1. Thus, activation of the ADRB1 stimulates binding of β-arrestin to the ProLink-tagged ADRB1 and forces complementation of the two enzyme fragments, resulting in the formation of an active β-galactosidase enzyme. Briefly, CHO-K1-ADRB1 PathHunter cell lines are plated in a total volume of 20 μL cell plating reagent (DiscoveRx, 93-0563R0A) at a density of 2,500 cells/well into 384 well microplates and incubated overnight at 37° C. in 5% CO2. […] Chemiluminescent signal is then read with a PerkinElmer Envision™ instrument. The results are expressed as a percent of the maximum efficacy achieved with isoproterenol.
Effects of compounds on β-arrestin signaling pathways are determined using CHO cells stably expressing human β1-adrenergic receptors or human β2-adrenergic receptors with PathHunter® β-Arrestin GPCR assay system (DiscoveRx). In this system, adrenergic receptor is fused in frame with the small enzyme fragment ProLink™ and co-expressed in cell stably expressing at fusion protein of β-arrestin and the larger, N-terminal deletion mutant of β-galactosidase enzyme. Activation of the adrenergic receptor stimulates binding of β-arrestin to the ProLink-tagged receptor and forces complementation of the two enzyme fragments, resulting in the formation of an active β-gal enzyme. This interaction leads to an increase in enzyme activity that can be measured using chemiluminescent detection reagents. The effects of compounds on β-arrestin signaling pathways are determined 90 minutes after incubating the cells with the test compounds.

[1] = test system: LPS-induced TNF-α response; experiment: In vivo LPS assay; set-up: species or system C57BI/6J mice; conditions: mice, 3 mg/kg 15 min prior to LPS, 90 min post-LPS
Experimental: Amplification is performed using StepOnePlus (Applied Biosystems).
Following injections, mice are single-housed. At 90 min post-LPS/saline, mice are deeply anesthetized with isoflurane and blood is collected from the right ventricle via cardiac puncture (23 g needle) into lithium heparin-containing vials (BD microtainer plasma tubes). Plasma is separated by centrifugation (11,000 rpm for 3 minutes) within 30 min of collection and stored at −80° C. until analysis. The concentration of TNF-α in the collected plasma is measured by ELISA (Invitrogen, KMC3012) according to the manufacturer's instruction.

Sequence of ADRB1 (P08588 whole entry, the tested form may be a part): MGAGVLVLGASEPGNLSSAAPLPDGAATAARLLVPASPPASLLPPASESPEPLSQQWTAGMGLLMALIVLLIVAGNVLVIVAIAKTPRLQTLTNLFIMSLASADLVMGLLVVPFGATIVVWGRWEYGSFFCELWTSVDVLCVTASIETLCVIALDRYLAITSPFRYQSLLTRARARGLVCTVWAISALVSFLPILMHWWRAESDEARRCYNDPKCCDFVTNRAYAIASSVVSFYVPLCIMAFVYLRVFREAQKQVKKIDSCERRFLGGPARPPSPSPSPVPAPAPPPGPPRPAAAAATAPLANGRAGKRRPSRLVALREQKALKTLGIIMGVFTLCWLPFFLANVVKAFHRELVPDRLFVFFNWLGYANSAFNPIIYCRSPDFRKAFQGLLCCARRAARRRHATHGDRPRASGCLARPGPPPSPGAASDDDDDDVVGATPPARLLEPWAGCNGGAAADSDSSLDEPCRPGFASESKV

Q: What does the source list for `COc1ccccc1OCCNC[C@H](O)COc1ccc(O)cc1` [Compound 43]?
A: β-arrestin pathway % Iso max (ADRB1; percent efficacy compared to the maximum response achieved with isoproterenol): 18.3%; pEC50 (ADRB1; read-out: β-arrestin pathway ADRB1 EC50): 7.00 to 8.00; LPS-induced TNF-α response in periphery (plasma) [1]: markedly inhibited; LPS-induced inflammatory response in the brain (TNF-α, IL-1β, IL-6 gene expression) [1]: attenuated
